In ChEMBL document CHEMBL1201862, “PubChem BioAssay data set” (2004):
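In this assay, cells in 96-well plates receive the compound at five concentrations for 48 hours. Endpoints are linearly interpolated between the surrounding concentrations. At the GI50, growth is halved.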 The source made the active and inactive calls. Cut-off read from the data, not from the text of the source: active = GI50 up to about 1.1 µM and inactive = higher. Peptide text beside a SMILES is read from it. * marks the point of attachment. Cbz = O=C(OCc1ccccc1)*; CH2Cl = ClC*

Assays:
Experiment in all cases: NCI anticancer screen, dose series, 48 h
HL-60 = test system: HL-60
SF-539 = test system: SF-539
HCC 2998 = test system: HCC 2998
SK-OV-3 = test system: SK-OV-3
SNB-75 = test system: SNB-75
KM12 = test system: KM12
CAKI-1 = test system: CAKI-1
Malme-3M = test system: Malme-3M
HCT-15 = test system: HCT-15
HCT-116 = test system: HCT-116
NCI-H460 = test system: NCI-H460
MDA-MB-231 = test system: MDA-MB-231
COLO 205 = test system: COLO 205
K562 = test system: K562
IGROV-1 = test system: IGROV-1
UACC-62 = test system: UACC-62
MOLT-4 = test system: MOLT-4
CCRF-CEM = test system: CCRF-CEM
HT-29 = test system: HT-29
EKVX = test system: EKVX
A549 = test system: A549
786-0 = test system: 786-0
NCI-H522 = test system: NCI-H522
MCF7 = test system: MCF7
RPMI-8226 = test system: RPMI-8226
OVCAR-8 = test system: OVCAR-8
PC-3 = test system: PC-3
DU-145 = test system: DU-145
Hs-578T = test system: Hs-578T
ACHN = test system: ACHN
NCI/ADR-RES = test system: NCI/ADR-RES
SN12C = test system: SN12C
NCI-H226 = test system: NCI-H226
SK-MEL-2 = test system: SK-MEL-2
SW-620 = test system: SW-620
LOX IMVI = test system: LOX IMVI
UO-31 = test system: UO-31
SR = test system: SR
U-251 = test system: U-251
HOP-92 = test system: HOP-92
T47D = test system: T47D
OVCAR-3 = test system: OVCAR-3
SNB-19 = test system: SNB-19
A498 = test system: A498
SK-MEL-28 = test system: SK-MEL-28
NCI-H23 = test system: NCI-H23
RXF 393 = test system: RXF 393
BT-549 = test system: BT-549
UACC-257 = test system: UACC-257
MDA-MB-435 = test system: MDA-MB-435
OVCAR-5 = test system: OVCAR-5
TK-10 = test system: TK-10
HOP-62 = test system: HOP-62
SK-MEL-5 = test system: SK-MEL-5
OVCAR-4 = test system: OVCAR-4
SF-268 = test system: SF-268
SF-295 = test system: SF-295
M14 = test system: M14
MDA-N = test system: MDA-N

SMILES: CC(C)CC(NC(=O)OCc1ccccc1)C(=O)NC(Cc1ccccc1)C(=O)CCl (stereo not drawn) (Cbz-Leu-Phe-CH2Cl; configuration not given here)
- GI50 (HL-60): 1.33 µM (inactive)
- GI50 (SF-539): 3.32 µM (inactive)
- GI50 (HCC 2998): 13.2 µM (inactive)
- GI50 (SK-OV-3): 11.4 µM (inactive)
- GI50 (SNB-75): 4.78 µM (inactive)
- GI50 (KM12): 9.77 µM (inactive)
- GI50 (CAKI-1): 5.14 µM (inactive)
- GI50 (Malme-3M): 1.92 µM (inactive)
- GI50 (HCT-15): 1660 nM
- GI50 (HCT-116): 1.68 µM (inactive)
- GI50 (NCI-H460): 6.5 µM (inactive)
- GI50 (MDA-MB-231): 1.69 µM (inactive)
- GI50 (COLO 205): 2.93 µM (inactive)
- GI50 (K562): 700 nM (active)
- GI50 (IGROV-1): 2 µM (inactive)
- GI50 (UACC-62): 2.71 µM (inactive)
- GI50 (MOLT-4): 664 nM (active)
- GI50 (CCRF-CEM): 204 nM (active)
- GI50 (HT-29): 2.68 µM (inactive)
- GI50 (EKVX): 18.6 µM (inactive)
- GI50 (A549): 15.9 µM (inactive)
- GI50 (786-0): 1.66 µM (inactive)
- GI50 (NCI-H522): 1.38 µM (inactive)
- GI50 (MCF7): 2.55 µM (inactive)
- GI50 (RPMI-8226): 1.61 µM (inactive)
- GI50 (OVCAR-8): 2.08 µM (inactive)
- GI50 (PC-3): 4.76 µM (inactive)
- GI50 (DU-145): > 100 µM (inactive)
- GI50 (Hs-578T): 4.62 µM (inactive)
- GI50 (ACHN): 4.25 µM (inactive)
- GI50 (NCI/ADR-RES): 2.44 µM (inactive)
- GI50 (SN12C): 1.77 µM (inactive)
- GI50 (NCI-H226): 1.91 µM (inactive)
- GI50 (SK-MEL-2): 2.05 µM (inactive)
- GI50 (SW-620): 1.57 µM (inactive)
- GI50 (LOX IMVI): 719 nM (active)
- GI50 (UO-31): 6.46 µM (inactive)
- GI50 (SR): 501 nM (active)
- GI50 (U-251): 8.38 µM (inactive)
- GI50 (HOP-92): 1.89 µM (inactive)
- GI50 (T47D): 2.21 µM (inactive)
- GI50 (OVCAR-3): 3.72 µM (inactive)
- GI50 (SNB-19): 23.6 µM (inactive)
- GI50 (A498): 23.6 µM (inactive)
- GI50 (SK-MEL-28): 1.85 µM (inactive)
- GI50 (NCI-H23): 2.03 µM (inactive)
- GI50 (RXF 393): 1.7 µM (inactive)
- GI50 (BT-549): 2.47 µM (inactive)
- GI50 (UACC-257): 4 µM (inactive)
- GI50 (MDA-MB-435): 2.34 µM (inactive)
- GI50 (OVCAR-5): 3.71 µM (inactive)
- GI50 (TK-10): 1.82 µM (inactive)
- GI50 (HOP-62): 16.1 µM (inactive)
- GI50 (SK-MEL-5): 1.82 µM (inactive)
- GI50 (OVCAR-4): 2.08 µM (inactive)
- GI50 (SF-268): 4.86 µM (inactive)
- GI50 (SF-295): 17.5 µM (inactive)
- GI50 (M14): 1.79 µM (inactive)
- GI50 (MDA-N): 1.56 µM (inactive)
